The structures appear in SMILES notation.

For experiment [1], the target named is T1, EP3 membrane (EP3 receptor) (Homo sapiens, UniProt P43115).
T1 construct: purchased Millipore HTS092M
T1 sequence (P43115 1-390): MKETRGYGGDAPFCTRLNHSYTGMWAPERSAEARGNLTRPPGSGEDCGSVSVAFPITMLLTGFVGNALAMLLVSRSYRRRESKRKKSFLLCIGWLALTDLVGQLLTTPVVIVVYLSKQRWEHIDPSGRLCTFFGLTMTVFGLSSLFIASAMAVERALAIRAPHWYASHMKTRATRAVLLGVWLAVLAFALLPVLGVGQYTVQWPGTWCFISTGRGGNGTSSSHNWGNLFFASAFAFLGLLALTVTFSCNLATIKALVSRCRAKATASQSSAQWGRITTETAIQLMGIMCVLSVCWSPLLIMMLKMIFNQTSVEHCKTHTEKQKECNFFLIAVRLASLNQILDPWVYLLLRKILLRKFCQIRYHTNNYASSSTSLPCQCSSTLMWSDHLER
The experiment is described as follows: [3H]-PGE2 binding; EP3 competition binding (SPA). In short, it runs like this:
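Ki derived from one-site nonlinear regression of scintillation proximity counts after 2 h room-temperature equilibration. Serially diluted (1:3) compounds competed against [3H]-PGE2 (2 nM) for EP3 receptor membranes (2 μg/well) in pH 7.4 Tris buffer with 10 mM MgCl2, 1 mM EDTA, 0.1% DMSO.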

In experiment [2] the target is T2, CHO cells over-expressing the EP3 receptor (Homo sapiens, UniProt P43115).
T2 construct: expressed in transfected cells; host or cells: CHO cells
T2 sequence (P43115 1-390): T1 sequence (P43115 1-390)
The experiment is described as follows: CHO cell cAMP assay; EP3 cAMP antagonist dose response (sulprostone reference), HTRF. The following applies: sulprostone 700 nM (EC80) and FSK 2 μM (EC70); read-out: CHO_cAMP IC50. It is filed as cell-based. Put shortly: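 EP3-overexpressing CHO cells pre-incubated with test compound, then stimulated 30 min at 37 °C with FSK (2 μM, EC70) plus sulprostone (700 nM, EC80); antagonism seen as restored cAMP. cAMP measured by HTRF 665/615 ratio, converted via on-plate standard curve. IC50 from Hill fit of 11-point dosing.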
In general terms: cAMP levels reflect the balance of adenylyl cyclase and phosphodiesterase activity.

Consider `O=C(C/C=C1\CCCc2cnn(Cc3ccc(Cl)cc3Cl)c21)NS(=O)(=O)c1cc(Cl)c(Cl)s1` [Compound #3, (E)-3-(1-(2,4-dichlorobenzyl)-1,4,5,6-tetrahydro-7H-indazol-7-ylidene)-N-((4,5-dichlorothiophen-2-yl)sulfonyl)propanamide], for which, in experiment [1], the affinity, expressed as Ki, was 3 nM. Besides, the IC50 in experiment [2] was found to be 33 nM.
For `O=C(NC/C(F)=C1\CCCn2nnc(Cc3ccccc3)c21)NS(=O)(=O)c1cc(Cl)c(Cl)s1` [Compound #129, (Z)—N-((2-(3-benzyl-6,7-dihydro-[1,2,3]triazolo[1,5-a]pyridin-4(5H)-ylidene)-2-fluoroethyl)carbamoyl)-4,5-dichlorothiophene-2-sulfonamide] the same measures were 29 nM and 548 nM.
For `O=C(C/C=C1\CCCc2cnn(Cc3ccc(Cl)cc3Cl)c21)NS(=O)(=O)c1cccs1` [Compound #20, (E)-3-(1-(2,4-dichlorobenzyl)-1,4,5,6-tetrahydro-7H-indazol-7-ylidene)-N-(thiophen-2-ylsulfonyl)propenamide] the same measures were 280 nM and 1000 nM.
Take `Cc1ncc(S(=O)(=O)NC(=O)NC/C=C2\CCCc3cnn(Cc4ccc(Cl)cc4Cl)c32)s1` [Compound #139, (E)-N-((2-(1-(2,4-dichlorobenzyl)-1,4,5,6-tetrahydro-7H-indazol-7-ylidene)ethyl)carbamoyl)-2-methylthiazole-5-sulfonamide]: the Ki in experiment [1] came out at 7 nM. Moreover, the half-inhibitory concentration (IC50) in experiment [2] turned out to be 9 nM.
The corresponding values for `O=C(NC/C=C1\CCCc2cnn(Cc3ccc(Cl)cc3Cl)c21)NS(=O)(=O)c1cc2ccccc2o1` [Compound #28, (E)-N-((2-(1-(2,4-dichlorobenzyl)-1,4,5,6-tetrahydro-7H-indazol-7-ylidene)ethyl)carbamoyl)benzofuran-2-sulfonamide] are 6 nM and 27 nM.
For `O=C(CC/C=C1\COCc2cnn(Cc3ccc(Cl)cc3Cl)c21)NS(=O)(=O)c1cc(Cl)c(Cl)s1` [Compound #57, (Z)-4-(1-(2,4-dichlorobenzyl)-1,4-dihydropyrano[4,3-c]pyrazol-7(6H)-ylidene)-N-((4,5-dichlorothiophen-2-yl)sulfonyl)butanamide], the Ki in experiment [1] is 1 nM. Further, the IC50 in experiment [2] turned out to be 3 nM.
In experiment [1], `CS(=O)(=O)c1ccc(-n2ncc3c2/C(=C/CNC(=O)NS(=O)(=O)c2cc(Cl)c(Cl)s2)CCC3)cc1` [Compound #126, (E)-4,5-dichloro-N-((2-(1-(4-(methylsulfonyl)phenyl)-1,4,5,6-tetrahydro-7H-indazol-7-ylidene)ethyl)carbamoyl)thiophene-2-sulfonamide] showed an inhibition constant Ki of 1 nM. For the same molecule, in experiment [2], the IC50 amounted to 30 nM.
For `O=C(NS(=O)(=O)c1ccc(Cl)cc1)OC/C=C1\CCCc2cnn(Cc3ccc(Cl)cc3Cl)c21` [Compound #2, (E)-2-(1-(2,4-dichlorobenzyl)-1,4,5,6-tetrahydro-7H-indazol-7-ylidene)ethyl ((4-chlorophenyl)sulfonyl)carbamate], in experiment [1], the inhibitory constant (Ki) was determined as 11 nM. Besides, in experiment [2], the half-inhibitory concentration (IC50) was 92 nM.
The molecule `O=C(NS(=O)(=O)c1ccc(Cl)cc1)OC/C=C1\CCCc2cnn(-c3ncccn3)c21` [compound 95] showed an inhibition constant (Ki) in experiment [1] of more than 10000 nM. Further, in experiment [2], the concentration for half-maximal inhibition (IC50) was more than 20000 nM.
`O=C(NC/C(F)=C1\CCCc2cnn(Cc3ccc(Cl)cc3Cl)c21)NS(=O)(=O)c1ccc(Cl)cc1` [Compound #86, (Z)-4-chloro-N-((2-(1-(2,4-dichlorobenzyl)-1,4,5,6-tetrahydro-7H-indazol-7-ylidene)-2-fluoroethyl)carbamoyl)benzenesulfonamide]: in experiment [1], the affinity, expressed as Ki, was 28 nM. In addition, the half-inhibitory concentration (IC50) in experiment [2] came out at 69 nM.
For `O=C(NC/C(F)=C1\CCCc2cnn(Cc3ccc(Cl)cc3Cl)c21)NS(=O)(=O)c1cc2ccccc2s1` [Compound #121, (Z)—N-((2-(1-(2,4-dichlorobenzyl)-1,4,5,6-tetrahydro-7H-indazol-7-ylidene)-2-fluoroethyl)carbamoyl)benzo[b]thiophene-2-sulfonamide] the same measures were 17 nM and 159 nM.
`O=C(NC/C(F)=C1\CCCc2onc(Cc3ccc(Cl)cc3Cl)c21)NS(=O)(=O)c1cc(Cl)c(Cl)s1` [Compound #127, (Z)-4,5-dichloro-N-((2-(3-(2,4-dichlorobenzyl)-6,7-dihydrobenzo[d]isoxazol-4(5H)-ylidene)-2-fluoroethyl)carbamoyl)thiophene-2-sulfonamide] came in with an inhibition constant (Ki) in experiment [1] of 1 nM. The half-maximal inhibitory concentration (IC50) in experiment [2] is 8 nM.
The corresponding values for `CC(C)S(=O)(=O)NC(=O)CC/C=C1\CCCc2cnn(Cc3ccc(Cl)cc3Cl)c21` [Compound #69, (E)-4-(1-(2,4-dichlorobenzyl)-1,4,5,6-tetrahydro-7H-indazol-7-ylidene)-N-(isopropylsulfonyl)butanamide] are 179 nM and 118 nM.
In turn, `COc1ccc(F)cc1S(=O)(=O)NC(=O)NC/C=C1\COCc2cnn(Cc3ccc(Cl)cc3Cl)c21` [Compound #64, (Z)—N-((2-(1-(2,4-dichlorobenzyl)-1,4-dihydropyrano[4,3-c]pyrazol-7(6H)-ylidene)ethyl)carbamoyl)-5-fluoro-2-methoxybenzenesulfonamide] came in with a Ki in experiment [1] of 12 nM. Also, the half-inhibitory concentration (IC50) in experiment [2] amounted to 81 nM.
Molecule `O=C(NC/C(F)=C1\CCCCc2cnn(Cc3ccc(Cl)cc3Cl)c21)NS(=O)(=O)c1ccc(Cl)cc1` [Compound #98, (Z)-4-chloro-N-((2-(1-(2,4-dichlorobenzyl)-4,5,6,7-tetrahydrocyclohepta[c]pyrazol-8(1H)-ylidene)-2-fluoroethyl)carbamoyl)benzenesulfonamide] returned a Ki in experiment [1] of 171 nM. Further, in experiment [2], the IC50 was found to be 120 nM.
For `Cc1nc(C)c(S(=O)(=O)NC(=O)NC/C=C2\CCCc3cnn(Cc4ccc(Cl)cc4Cl)c32)s1` [Compound #150, (E)-N-((2-(1-(2,4-dichlorobenzyl)-1,4,5,6-tetrahydro-7H-indazol-7-ylidene)ethyl)carbamoyl)-2,4-dimethylthiazole-5-sulfonamide] the same measures were 2 nM and 4 nM.
With `O=C(NC/C(F)=C1/COCc2cnn(Cc3ccc(Cl)cc3Cl)c21)NS(=O)(=O)c1cc(Cl)c(Cl)s1` [Compound #60, (Z)-4,5-dichloro-N-((2-(1-(2,4-dichlorobenzyl)-1,4-dihydropyrano[4,3-c]pyrazol-7(6H)-ylidene)-2-fluoroethyl)carbamoyl)thiophene-2-sulfonamide], in experiment [1], the affinity corresponds to a Ki of 7 nM. Besides, the IC50 in experiment [2] came out at 4 nM.
The corresponding values for `O=C(NC/C=C1\CCCc2cnn(Cc3ccc(Cl)cc3Cl)c21)NS(=O)(=O)c1ccc2c(c1)OCCO2` [Compound #16, (E)-N-((2-(1-(2,4-dichlorobenzyl)-1,4,5,6-tetrahydro-7H-indazol-7-ylidene)ethyl)carbamoyl)-2,3-dihydrobenzo[b][1,4]dioxine-6-sulfonamide] are 9 nM and 27 nM.
The corresponding values for `O=C(NS(=O)(=O)c1ccc(Cl)cc1)OC/C=C1\c2c(cnn2Cc2ccc(Cl)cc2Cl)CCC1F` (stereo not shown) [Compound #51, (E)-2-(1-(2,4-dichlorobenzyl)-6-fluoro-1,4,5,6-tetrahydro-7H-indazol-7-ylidene)ethyl ((4-chlorophenyl)sulfonyl)carbamate] are more than 10000 nM and 15700 nM.
Regarding `COc1ccccc1S(=O)(=O)NC(=O)NC/C=C1\CCCc2cnn(Cc3ccc(Cl)cc3Cl)c21` [Compound #39, (E)-N-((2-(1-(2,4-dichlorobenzyl)-1,4,5,6-tetrahydro-7H-indazol-7-ylidene)ethyl)carbamoyl)-2-methoxybenzenesulfonamide], affinity in experiment [1] was put at a Ki of 62 nM. The concentration for half-maximal inhibition (IC50) in experiment [2] was found to be 114 nM.
With `COc1ccc(Cl)cc1S(=O)(=O)NC(=O)NC/C(F)=C1\CCCc2cnn(-c3ccc4ccccc4c3)c21` [Compound #115, (Z)-5-chloro-N-((2-fluoro-2-(1-(naphthalen-2-yl)-1,4,5,6-tetrahydro-7H-indazol-7-ylidene)ethyl)carbamoyl)-2-methoxybenzenesulfonamide], in experiment [1], the Ki was found to be 1100 nM. In experiment [2], the IC50 is 4200 nM.
The corresponding values for `O=C(NC/C=C1\CCCc2cnn(-c3ccc(-c4ccccc4)cc3)c21)NS(=O)(=O)c1cc(Cl)c(Cl)s1` [Compound #99, (E)-N-((2-(1-([1,1′-biphenyl]-4-yl)-1,4,5,6-tetrahydro-7H-indazol-7-ylidene)ethyl)carbamoyl)-4,5-dichlorothiophene-2-sulfonamide] are 1 nM and 9 nM.
For `COc1ccc(Cl)cc1S(=O)(=O)NC(=O)NC/C=C1\CCCc2cnn(Cc3ccc(Cl)cc3Cl)c21` [Compound #43, (E)-5-chloro-N-((2-(1-(2,4-dichlorobenzyl)-1,4,5,6-tetrahydro-7H-indazol-7-ylidene)ethyl)carbamoyl)-2-methoxybenzenesulfonamide] the same measures were 3 nM and 8 nM.

The term Ki denotes a measure of affinity in units of concentration, obtained from inhibition or displacement. Read a high Ki as weaker binding. Usually IC50 stands for the point on the concentration scale where inhibition reaches its midpoint.

Values taken from patent US20210253562A1, “ACYLSUFONAMIDE COMPOUNDS USEFUL AS EP3 RECEPTOR ANTAGONISTS” (Janssen Pharmaceutica NV, priority 2018, published 2021).
